Columns and labels:
[1] = tested on: TGF-β-stimulated SMAD3 phosphorylation in BEAS-2B cells; assay: Cellular ALK5 potency assay, inhibition of TGF-β stimulated pSMAD3 formation in BEAS-2B cells; format: cell-based; conditions: Homo sapiens; inhibition of TGF-β stimulated pSMAD3 formation, BEAS-2B cells; read-out: BEAS2B pIC50 (converted)
How it was run: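 SMAD3 phosphorylation was measured by AlphaLISA after 30 min TGF-β stimulation (10 ng/mL final) of BEAS-2B cells preincubated 1 h with compound at 37 °C. Results given as pIC50.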

[2] = target: T1, recombinant human ALK5 (TGF-βR1) protein (Homo sapiens, UniProt P36897); assay: Biochemical ALK5 (TGF-βR1) assay to measure pKi (LANCE Ultra ULight kinase assay); conditions: apparent pKi from pIC50 by Cheng-Prusoff, read-out: ALK5 pKi (converted)
T1 construct: purchased Life Technologies PR9075A
T1 sequence (P36897 34-503): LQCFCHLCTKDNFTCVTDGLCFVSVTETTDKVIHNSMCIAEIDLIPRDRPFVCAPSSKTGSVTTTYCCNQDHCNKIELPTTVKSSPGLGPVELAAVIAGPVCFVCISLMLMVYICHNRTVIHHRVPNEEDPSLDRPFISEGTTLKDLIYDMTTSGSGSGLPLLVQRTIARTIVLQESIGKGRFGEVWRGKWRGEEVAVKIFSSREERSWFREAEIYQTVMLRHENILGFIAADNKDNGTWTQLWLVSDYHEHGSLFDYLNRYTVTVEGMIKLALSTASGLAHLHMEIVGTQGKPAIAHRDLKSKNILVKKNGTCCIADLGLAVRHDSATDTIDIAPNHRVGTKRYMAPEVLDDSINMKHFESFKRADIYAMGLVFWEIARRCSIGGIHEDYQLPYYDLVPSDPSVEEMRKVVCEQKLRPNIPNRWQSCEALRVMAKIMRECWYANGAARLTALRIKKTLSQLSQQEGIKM
How it was run: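 Compounds (10 μM to 25 pM) preincubated 60 minutes at room temperature with enzyme, then reaction run 60 minutes at 37° C with ATP added as 125 μM (5× final). Stopped with EDTA plus Eu-anti-phospho-Topoisomerase 2-alpha (Thr1342) antibody, TR-FRET read at 665 nm; pIC50 converted to pKi via Cheng-Prusoff.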

| Ki [2] [nM] | SMILES | IC50 [1] [nM] |
| --- | --- | --- |
| 0.0398 to 0.316 | Cc1nc(-c2nc3ccccn3c2-c2ccc3ncc(-c4nnn5c4CNCC5)cc3n2)ccc1F [Compound 202, 2-[2-(5-fluoro-6-methyl-2-pyridyl)imidazo[1,2-a]pyridin-3-yl]-7-(4,5,6,7-tetrahydrotriazolo[1,5-a]pyrazin-3-yl)-1,5-naphthyridine] | 200 to 1260 |
| 0.0398 to 0.316 | Cc1cccc(-c2nc3ccccn3c2-c2ccc3ncc(N4CCCNCC4)cc3n2)n1 [Compound 646, 7-(1,4-diazepan-1-yl)-2-[2-(6-methyl-2-pyridyl)imidazo[1,2-a]pyridin-3-yl]-1,5-naphthyridine] | 25.1 to 158 |
| < 0.0316 | Cc1cccc(-c2n[nH]cc2-c2ccc3ncc(-c4cc(C)nn4C)cc3n2)n1 [Compound 596, 7-(2,5-dimethylpyrazol-3-yl)-2-[3-(6-methyl-2-pyridyl)-1H-pyrazol-4-yl]-1,5-naphthyridine] | < 20 |
| < 0.0316 | Cc1cccc(-c2n[nH]cc2-c2ccc3ncc(-c4cncs4)cc3n2)n1 [Compound 190, 5-[6-[3-(6-methyl-2-pyridyl)-1H-pyrazol-4-yl]-1,5-naphthyridin-3-yl]thiazole] | < 20 |
| 0.398 to 3.16 | Cc1nc(-c2n[nH]cc2-c2ccc3ncc(-c4c(C)nn5c4NCCC5)cc3n2)ccc1F [Compound 504, 2-[3-(5-fluoro-6-methyl-2-pyridyl)-1H-pyrazol-4-yl]-7-(2-methyl-4,5,6,7-tetrahydropyrazolo[1,5-a]pyrimidin-3-yl)-1,5-naphthyridine] | 25.1 to 158 |
| 0.0398 to 0.316 | Cc1nc(-c2n[nH]cc2-c2ccc3ncc(-c4nc5c([nH]4)CNCC5)cc3n2)ccc1F [Compound 425, 2-[3-(5-fluoro-6-methyl-2-pyridyl)-1H-pyrazol-4-yl]-7-(4,5,6,7-tetrahydro-3H-imidazo[4,5-c]pyridin-2-yl)-1,5-naphthyridine] | 200 to 1260 |
| < 0.0316 | CNCCn1cc(-c2cnc3ccc(-c4c[nH]nc4-c4cccc(C(F)F)n4)nc3c2)cn1 [Compound 481, 2-[4-[6-[3-[6-(difluoromethyl)-2-pyridyl]-1H-pyrazol-4-yl]-1,5-naphthyridin-3-yl]pyrazol-1-yl]-N-methyl-ethanamine] | 25.1 to 158 |
| 0.398 to 3.16 | Cc1cccc(-c2nc3sccn3c2-c2ccc3ncc(Br)cc3n2)n1 [Compound 511, 5-(7-Bromo-1,5-naphthyridin-2-yl)-6-(6-methylpyridin-2-yl)imidazo[2,1-b]thiazole] | 25.1 to 158 |
| 0.0398 to 0.316 | CNCCn1cc(-c2cnc3ccc(-c4nc[nH]c4-c4ccc(F)c(C)n4)nc3c2)cn1 [Compound 559, 2-[4-[6-[5-(5-fluoro-6-methyl-2-pyridyl)-1H-imidazol-4-yl]-1,5-naphthyridin-3-yl]pyrazol-1-yl]-N-methyl-ethanamine] | 25.1 to 158 |
| 0.0398 to 0.316 | Cc1cccc(-c2n[nH]cc2-c2ccc3ncc(N4CCC(N(C)CC(C)C)CC4)cc3n2)n1 [Compound 403, N-isobutyl-N-methyl-1-[6-[3-(6-methyl-2-pyridyl)-1H-pyrazol-4-yl]-1,5-naphthyridin-3-yl]piperidin-4-amine] | 25.1 to 158 |
| 0.398 to 3.16 | Cc1cccc(-c2[nH]cnc2-c2ccc3ncc(-c4cnc(C(=O)OCCN5CCNCC5)nc4)cc3c2)n1 [Compound 1138, 2-piperazin-1-ylethyl 5-[6-[5-(6-methyl-2-pyridyl)-1H-imidazol-4-yl]-3-quinolyl]pyrimidine-2-carboxylate] | 200 to 1260 |
| 0.0398 to 0.316 | Cc1cccc(-c2[nH]cnc2-c2ccc3ncc(NCCN4CC5(CCCNC5)C4)cc3c2)n1 [Compound 733, N-[2-(2,8-diazaspiro[3.5]nonan-2-yl)ethyl]-6-[5-(6-methyl-2-pyridyl)-1H-imidazol-4-yl]quinolin-3-amine] | 200 to 1260 |
| 0.0398 to 0.316 | Cc1cccc(-c2[nH]cnc2-c2ccc3ncc(-c4nccc(C(=O)OCC5CNC5)n4)cc3c2)n1 [Compound 1098, azetidin-3-ylmethyl 2-[6-[5-(6-methyl-2-pyridyl)-1H-imidazol-4-yl]-3-quinolyl]pyrimidine-4-carboxylate] | 200 to 1260 |

Source: patent US11590116B2 (THERAVANCE BIOPHARMA R&D IP, LLC, priority 2019, dated 2023)
